Data taken from patent publication US9241964B2, “Composition from Sphaeranthus indicus and Garcinia mangostana for the control of metabolic syndrome” (LAILA NUTRACEUTICALS, priority 2009, dated 2016).

What was measured:
[1] = test system: 3T3-L1 mouse pre-adipocyte cells; experiment: Inhibition of lipid accumulation in differentiated adipocytes (Oil Red O); format: cell-based; details: 10 μg/ml; 3T3-L1 (Table III)
Protocol: The inhibition of fat accumulation in the treated cells was compared with the mock treated differentiated adipocytes and percentage inhibition was measured.
One hundred thousand 3T3-L1 […] pre-adipocyte cells in Dulbecco's Modified Eagles Medium (DMEM) containing 10% Fetal Bovine Serum (FBS) were taken into each well of a 24-well plate and incubated for 48 h at 37° C. and 5% CO2. The differentiation of pre-adipocyte cells was initiated in a differentiation medium containing 10 μg/ml insulin, 1.0 μM dexamethasone, and 0.5 mM isobutylmethylxanthine (IBMX) for 48 h. After this the medium was replaced by DMEM containing 10 μg/ml insulin and incubated for 3 days. Then the differentiating cells were treated 10 μg/ml of Sphaeranthus indicus ethyl acetate extract (LI/DD-II/054A/01) and 0.5 μg/ml of 7-hydroxyfrullanolide (LI054A01) and maintained in the medium for another 3-5 days. The cells incubated with 0.1% DMSO were considered as the vehicle control. After the incubation period, cells were washed with phosphate buffered saline (PBS) and fixed with 10% buffered formalin for 1 h at room temperature. One small aliquot of cell suspension was separated for cell counting in hemocytometer chamber. Fixed cells were stained with Oil Red O solution to measure the cellular neutral lipid accumulation. Briefly, cells were washed with PBS, fixed with 10% buffered formalin and stained with Oil Red O solution (0.5 g in 100 ml isopropanol) for 10 min. After removing the staining solution, the dye retained in the cells will be eluted into isopropanol and OD measured at 550 nm. The inhibition of fat accumulation in the treated cells was compared with the mock treated differentiated adipocytes. The treated and control cells were also analyzed and compared for inhibition of lipid accumulation visually under microscope and recorded digitally in suitable image capture system. The anti-adipogenic activities shown by Sphaeranthus Indicus ethyl acetate extract (LI/DD-II/054A/01) and LIO054A01 are summarized in the following table.

[2] = test system: 3T3-L1 pre-adipocyte cells; experiment: Pro-lipolytic activity in differentiated adipocytes (free glycerol release); format: cell-based, mouse; details: 3T3-L1 (Table IV)
Protocol: Similarly, the pro-lipolytic activity of the ethyl actate extract (LI/DD-II/054A/01) of Sphaeranthus indicus was assessed in differentiated/mature adipocytes using 3T3-L1 pre-adipocyte cells. The lipolytic activity was assessed in mature adipocytes by measuring free glycerol secreted into the culture medium as per the procedure of Adipolysis Assay Kit (Chemicon International, USA).
The lipolytic activity was assessed in mature adipocytes as per the procedure of Chemicon International, USA, by measuring free glycerol secreted into the culture medium. One hundred thousand 3T3-L1 […] pre-adipocyte cells in Dulbecco's Modified Eagles Medium (DMEM) containing 10% Fetal Bovine Serum (FBS) were taken into each well of a 24-well plate and incubated for 48 h at 37° C. and 5% CO2. The differentiation of pre-adipocyte cells was initiated in a differentiation medium containing 10 μg/ml insulin, 1.0 μM dexamethasone, and 0.5 mM isobutylmethylxanthine (IBMX). The cells were differentiated for 5 days and then the culture medium was removed. […] The samples and the controls were incubated for 15 min, and the absorbance was read at 540 nm. […]

[3] = biological target: α-amylase; experiment: α-Amylase inhibition (DNS method); format: biochemical; details: 1% soluble starch as substrate
Protocol: α-Amylase inhibitory activity was measured using the dinitrosalicylic acid (DNS) method developed by Bernfeld (Methods in Enzymology, 1955, Vol. 1, pp 149-158), improved by Jamieson et al (Journal of Dental Research 1969; 48(3): 483) and adopted for testing inhibitory potential of test substances by M. C. M da Silva et al (2004, Pesq. Agropec. bras., Brasilia, 2004; 39(3); pp 201-208) using 1% soluble starch as substrate.
The test substances (α-mangostin, γ-mangostin and AR 933) were pre-incubated with α-amylase 100 μL (10-25 U/mL) at room temperature for 20 minutes prior to the addition of 100 μL of the substrate solution followed by incubation at 37° C. for 10 minutes. The reactions were stopped by the addition of 200 μL of DNS reagent, followed by color development by placing the tubes in boiling water for 5 minutes. After addition of 3.6 mL distilled water, the absorbance was read at 470 nm. Known α-amylase inhibitor was used as positive control and vehicle was used as negative control. Assays were carried out at least in duplicate. Percentage inhibition will be calculated by comparing mean test OD with mean control OD. {% inhibition=[(COD−TOD)/COD]×100}. The IC50 values were calculated by linear regression analysis of the dose response curve.

[4] = biological target: α-glucosidase; experiment: α-Glucosidase inhibition (p-nitrophenyl α-D-glucopyranose); format: biochemical; details: pH 7, room temperature
Protocol: α-Glucosidase inhibitory activity was measured using the in vitro method developed by D. Prasanth et al., (Fitoterapia 2001, 72, 686-688). In a micro plate well was taken 50 μL of α-glucosidase enzyme (0.4 U/mL), and treated with 90 μL of 100 mM phosphate buffer (pH 7) and 10 μL test substances (α-mangostin, γ-mangostin and AR 933) or vehicle control. The contents were mixed well and the reaction mixtures were incubated at room temperature for 5 min, and then added 50 μL of p-nitrophenyl α-D-glucopyranose (20 mM) as substrate. The contents were mixed well and again incubated at room temperature for 15 min. The reaction was stopped by the addition of 30 μL of sodium carbonate solution (135 mM). The absorbance was measured at 405 nm using micro plate reader. Control and test blank ODs were obtained by replacing enzyme with buffer. Percentage inhibitions were calculated by comparing mean test OD with mean control OD. {% inhibition=[(COD−TOD)/COD]×100}. The IC50 values were calculated by linear regression analysis of the dose response curve.

Row | Structure (SMILES) | % inhibition of Lipid accumulation 10 μg/ml [1] | % acceleration of lipolysis 25 μg/ml [2] | IC50 (μg/ml) for α-amylase [3] | IC50 (μg/ml) for α-glucosidase [4]
1 | COc1c(O)cc2oc3cc(O)c(CC=C(C)C)c(O)c3c(=O)c2c1CC=C(C)C [α-mangostin] | 16.06% | 156.56% | 3.99 µg/mL | 0.30 µg/mL
2 | CC(C)=CCc1c(O)cc2oc3cc(O)c(O)c(CC=C(C)C)c3c(=O)c2c1O [γ-mangostin] | 61.57% | 4.52% | 3.88 µg/mL | 0.16 µg/mL
